From PMC7482441 (Pharmacological Research, 2020)

Key:
KLK6 = test: Circulating biomarker, baseline vs 4-week treatment; type: in vivo, human; conditions: 20 DMD patients, OLink, p-value 0.0004, FDR 0.20
[1] = system: CK MM (Creatine Kinase MM isoform); test: as above; type: in vivo, human; conditions: 20 DMD patients, Electrophoresis, p-value 0.0009, FDR 0.24

## [H]/N=C(\N)NC(=O)c1cc(S(C)(=O)=O)c(S(C)(=O)=O)cc1C [Rimeporide]
KLK6
  KLK6: Term (TRT, linear mixed effect model, Day 28 vs Day 0): −0.2612
[1]
  CK MM: Term (TRT, linear mixed effect model, Day 28 vs Day 0): −0.3886
